Test results: publication PMC4980415 (Psychopharmacology, 2016)

How the values were obtained:
in vivo = conditions: male, Sprague-Dawley, rat, oral
Method: Standard methods of tissue extraction were used. […] Brain homogenate or plasma was then extracted with two volumes of acetonitrile and clarified by centrifugation at 12,000g for 20 min. […] Brain and plasma concentration and ratio (brain/plasma) were calculated for each compound.

[1] = tested on: conditioned avoidance responding in male Wistar rats; experiment: Conditioned avoidance response (CAR); assay type: in vivo, rat
Method: The drug was administered, per os (po), by gavage to rats in a volume of 2 ml/kg body weight. Oral dosing solutions were prepared fresh daily. […] The pH of the dosing solution was adjusted to ~pH 5.5 by dropwise addition of 0.1 N NaOH in saline and volume adjusted by addition of saline in preparation for intraperitoneal (ip) dosing. […] Control treatments were always the vehicle solutions of the corresponding drugs.
Avoidance behavior, escape behavior, escape failures, and inter-trial crosses were recorded, as described here: (1) avoidance (response to CS within 10 s); (2) escape (response to CS + UCS); and (3) escape failure (if the rat was unable to respond to the shock by moving into the opposite compartment within 50 s, the trial was terminated). The inter-trial interval (end of trial to start of new trial) varied randomly between 20 and 40 s. Rats were trained for five consecutive days and adapted to the shuttle box 5 min before each training session. Training sessions consisted of about 20 trials, randomly distributed over 15 min. Only rats that performed at least 90 % avoidance on the last day of training were included in the experiments. All subsequent test sessions were preceded by a pre-test to verify continued performance in the paradigm. Pre-tests and test sessions consisted of approximately ten trials, each randomly distributed over a 7.5-min period. […] Experimental days were always separated by at least two non-experimental days. Experimental tests were separated by at least 2 days to insure drug washout.
Results from the conditioned avoidance responding (CAR) protocol were analyzed using non-parametric procedures.

SMILES	concentration at 1 h (in vivo; brain) [ng/mL]	concentration at 1 h (in vivo; plasma) [ng/mL]	concentration at 1 h (in vivo; plasma, plasma concentration, risperidone 2 mg/kg po plus vehicle, 1 h, ± SD, n = 3) [ng/mL]	effect on percent avoidances ([1]; 0.2 mg/kg i.p., sub-threshold dose)	effect on avoidance behaviors ([1]; 0.8 mg/kg i.p., effective dose)
Cc1nc2n(c(=O)c1CCN1CCC(c3noc4cc(F)ccc34)CC1)CCCC2O (centres unmarked) [Paliperidone, paliperidone]	15 ± 5	197 ± 91	162 ± 70		
Cc1nc2n(c(=O)c1CCN1CCC(c3noc4cc(F)ccc34)CC1)CCCC2 [Risperidone, reference compound]				no effect	significant inhibition
